According to patent publication US6242443A, “1,2,4-benzothiadiazine derivatives, their preparation and use” (Novo Nordisk AIS, priority 1996, dated 2001):
pEC50: −log10 of the molar value.

system: rat aorta rings; experiment: Relaxation of rat aorta rings (phenylephrine-contracted); type: cell-based; conditions: rat thoracic aorta rings contracted with phenylephrine to 80% of maximum response, cumulative addition; read-out: EC50 (concentration required to evoke a 50% relaxation of the tissue)
Procedure: The activity of the compounds as potassium channel openers can also be measured as relaxation of rat aortas rings according to the following procedure:
A section of rat thoracic aorta between the aortic arch and the diaphragm was dissected out and mounted as ring preparations as described by Taylor P. D. et al, Brit J. Pharmacol, 111, 42-48 (1994).
After a 45 min. equilibration period under a tension of 2 g, the preparations were contracted to achieve 80% of the maximum response using the required concentration of phenylephrine. When the phenylephrine response reached a plateau, potential vasodilatory agents were added cumulatively to the bath in small volumes using half log molar increments at 2 min intervals. Relaxation was expressed at the percentage of the contracted tension. The potency of a compound was expressed as the concentration required to evoke a 50% relaxation of the tissue.

| pEC50 | SMILES |
| --- | --- |
| 4.49 | C[C@H](NC1=NS(=O)(=O)c2cc(I)ccc2N1)c1ccccc1 [Example 88, 7-Iodo-3-(S)-(1-phenylethyl)amino-4H-1,2,4-benzothiadiazine 1,1-dioxide] |
| 5.28 | CC(C)NC1=NS(=O)(=O)c2ccc(C(F)(F)F)cc2N1 [Example 50, 3-Isopropylamino-6-trifluoromethyl-4H-1,2,4-benzothiadiazine 1,1-dioxide] |

The next lines start with the molecule.

| SMILES | pEC50 |
| --- | --- |
| CCNC1=NS(=O)(=O)c2cc(F)ccc2N1 [Example 101, 3-Ethylamino-7-fluoro-4H-1,2,4-benzothiadiazine 1,1-dioxide] | 4.85 |
| CCNC1=NS(=O)(=O)c2cc(Br)ccc2N1 [Example 94, 7-Bromo-3-ethylamino-4H-1,2,4-benzothiadiazine 1,1-dioxide] | 5.32 |

system: RIN 5F cells; experiment: 86Rb+ efflux from a β-cell line (increased Rb-efflux in RIN 5F cells); type: cell-based; conditions: 1 h at room temperature, pH 7.1
Procedure: ^86 Rb^+ efflux from a β-cell line
The RIN 5F cell line was grown in RPMI 1640 with Glutamax I, supplemented with 10% fetal calf serum (from GibcoBRL, Scotland, UK) and maintained in an atmosphere of 5% CO2 /95% air at 37° C. The cells were detached with a Trypsin-EDTA solution (from GibcoBRL, Scotland, UK), resuspended in medium, added 1 mCi/ml ^86 Rb^+ and replated into microtiter plates (96 well cluster 3596, sterile, from Costar Corporation,MA, USA) at a density of 50000 cells/well in 100 μl/well, and grown 24 hours before use in assay.
The plates were washed 4 times with Ringer buffer (150 mM NaCl, 10 mM Hepes, 3.0 mM KCl, 1.0 mM CaCl2, 20 mM Sucrose, pH 7.1). Eighty μl Ringer buffer and 1 μl control- or test compound dissolved in DMSO was added. After incubation 1 h at room temperature with a lid, 50 μl of the supernatant was transferred to PicoPlates (Packard Instrument Company, CT, USA) and 100 μl MicroScint40 (Packard Instrument Company, CT, USA) added. The plates were counted in TopCount (Packard Instrument Company, CT, USA) for 1 min/well at the ^32 P program.
The calculation of EC50 and Emax was done by SlideWrite (Advanced Graphics Software, Inc., CA, USA) using a four parameter logistic curve: y=(a-d)/(1+(x/c)^b)+d, where a=the activity estimated at concentration zero, b=a slope factor, c=the concentration at the middle of the curve and, d=the activity estimated at infinite concentration. EC50 =c and Emax =d, when the curve is turned of at infinite concentrations.

| pEC50 | SMILES |
| --- | --- |
| 4.89 | CC(C)C(C)NC1=NS(=O)(=O)c2cc(Cl)c(Cl)cc2N1 (stereo not shown) [Example 26, 6,7-Dichloro-3-(1,2-dimethylpropyl)amino-4H-1,2,4-benzothiadiazine 1,1-dioxide] |
| 5.03 | O=S1(=O)N=C(NCC2CCCCC2)Nc2ccc(Cl)cc21 [Example 66, 7-Chloro-3-(cyclohexylmethyl)amino-4H-1,2,4-benzothiadiazine 1,1-dioxide] |
| 4.89 | O=S1(=O)N=C(NCc2ccccc2)Nc2ccc(I)cc21 [Example 86, 3-Benzylamino-7-iodo-4H-1,2,4-benzothiadiazine 1,1-dioxide] |
